The results in this text go back to ChEMBL document CHEMBL1201862, “PubChem BioAssay data set” (2004).

Common to all, as to test: NCI anticancer screen, dose series, 48 h
The test system of experiment [1] is SK-OV-3.
Experiment [2] deals with TK-10.
Experiment [3] deals with UACC-257.
In experiment [4] the test system is SF-295.
The test system of experiment [5] is NCI-H23.
In experiment [6] the test system is SW-620.
The test system of experiment [7] is SK-MEL-5.
For experiment [8], the system named is MCF7.
For experiment [9], the system named is OVCAR-8.
Experiment [10] concerns CAKI-1.
The subject of experiment [11] is MDA-MB-435.
In experiment [12] the test system is KM12.
Experiment [13] deals with SN12C.
In experiment [14] the test system is CCRF-CEM.
For experiment [15], the system named is EKVX.
The subject of experiment [16] is 786-0.
The subject of experiment [17] is RPMI-8226.
Experiment [18] relates to LOX IMVI.
For experiment [19], the system named is Hs-578T.
The test system of experiment [20] is MDA-MB-231.

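Cells were grown in 96-well plates and exposed to each compound for 48 hours at five concentrations; endpoints were interpolated linearly between bracketing concentrations, or set to the highest concentration if not reached. At the GI50, growth is halved.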 Calls of active or inactive are those of the source. Cut-off read from the data, not from the text of the source: active = GI50 up to about 1.1 µM and inactive = higher. Where only a bound is given, the exact number is not on record here.

Regarding `Oc1nc2c(c(-c3ccccc3Cl)n1)COC/C2=C\c1ccccc1Cl`, the GI50 in experiment [1] is > 100 µM (inactive); in experiment [2], > 100 µM (inactive); in [3], > 100 µM (inactive); in [4], 94.8 µM (inactive); in experiment [5] it was > 100 µM (inactive); in experiment [6], > 100 µM (inactive). The GI50 in experiment [7] was > 100 µM (inactive); in [8], 65.9 µM (inactive); in [9], > 100 µM (inactive); in experiment [10], > 100 µM (inactive); in experiment [11], > 100 µM (inactive); in experiment [12], > 100 µM (inactive). For the same compound, the GI50 is > 100 µM (inactive) in [13]; 49.3 µM (inactive) in [14]; 25.6 µM (inactive) in experiment [15]; > 100 µM (inactive) in experiment [16]; > 100 µM (inactive) in experiment [17]; > 100 µM (inactive) in experiment [18]. Moreover, the GI50 in experiment [19] and in [20] was > 100 µM (inactive) throughout.
For the compound `CCOC(=O)C(NC(=O)c1cccc(Cl)c1)(Nc1ccc(S(=O)(=O)Nc2cc(C)nc(C)n2)cc1)C(F)(F)F` (configuration not stated), the GI50 in [1], in experiment [2], in [3], in experiment [4], in experiment [5] and in [6] was > 100 µM (inactive) throughout. For the same compound, the GI50 in [7], in experiment [8], in experiment [9], in experiment [10], in [11] and in experiment [12] was > 100 µM (inactive) in each case. For the same compound, the GI50 in experiment [13], in experiment [14], in experiment [15], in experiment [16], in experiment [17] and in [18] was > 100 µM (inactive) in each case. The GI50 in experiment [19] and in experiment [20] was > 100 µM (inactive) each time.
As for `CCOC(=O)c1cc2c(OC(C)=O)ccc(OC(C)=O)c2s1`, the GI50 is 9.4 µM (inactive) in experiment [1]; 6.82 µM (inactive) in [2]; 1.95 µM (inactive) in experiment [3]; 6.9 µM (inactive) in [4]; 1.99 µM (inactive) in experiment [5]; 2.1 µM (inactive) in experiment [6]. Besides, the GI50 in experiment [7] was 2.29 µM (inactive); in experiment [8], 3.03 µM (inactive); in experiment [9], 1.66 µM (inactive); in experiment [10], 4.35 µM (inactive); in experiment [11], 2.67 µM (inactive); in [12], 4.52 µM (inactive). Besides, the GI50 in [13] is 2.25 µM (inactive); in experiment [14] it was 2.16 µM (inactive); in [15] it was 2.82 µM (inactive); in experiment [16] it was 2.49 µM (inactive); in experiment [17], 2.31 µM (inactive); in experiment [18] it was 0.891 µM (active). Moreover, the GI50 in [19] was 1.69 µM (inactive); in experiment [20], 2.02 µM (inactive).
With `CC(C)C(=O)OCC1CCCN2CCCCC12` (configuration not stated), the GI50 in experiment [1], in [2], in [3], in [4], in [5] and in experiment [6] was > 100 µM (inactive) each time. Also, the GI50 in experiment [7] was > 100 µM (inactive); in experiment [8] it was 48.1 µM (inactive); in experiment [9], > 100 µM (inactive); in experiment [10], > 100 µM (inactive); in experiment [11], > 100 µM (inactive); in experiment [12] it was > 100 µM (inactive). For the same compound, the GI50 in experiment [13] was > 100 µM (inactive); in experiment [14], 51.3 µM (inactive); in experiment [15], > 100 µM (inactive); in experiment [16], 64.4 µM (inactive); in experiment [17], 95.3 µM (inactive); in [18], 82 µM (inactive). The GI50 in experiment [19] is > 100 µM (inactive); in experiment [20] it was 45.4 µM (inactive).
`O=C1Cc2c(-c3ccccc3)cc(-c3ccc(Cl)cc3)nc2-c2ccccc2N1`: the GI50 is 2.39 µM (inactive) in experiment [1]; 3.41 µM (inactive) in experiment [2]; 14.2 µM (inactive) in [3]; 5.89 µM (inactive) in experiment [4]; 4.03 µM (inactive) in experiment [5]; 6.7 µM (inactive) in experiment [6]. For the same compound, the GI50 in [7] was 3.65 µM (inactive); in [8], 8.89 µM (inactive); in experiment [9], 2.37 µM (inactive); in experiment [10], 3.91 µM (inactive); in experiment [11], 8.99 µM (inactive); in experiment [12] it was 7.89 µM (inactive). The GI50 in experiment [13] was 3.33 µM (inactive); in experiment [14], 5.97 µM (inactive); in experiment [15] it was 6.92 µM (inactive); in experiment [16] it was 1.73 µM (inactive); in [17], 8.47 µM (inactive); in experiment [18], 6.22 µM (inactive). The GI50 in experiment [19] is 2.88 µM (inactive); in experiment [20] it was 4.13 µM (inactive).
For `COC1(OC)CCN(Cc2ccccc2)C1=O`, the GI50 in experiment [1] was 96.4 µM (inactive); in experiment [2] it was 16 µM (inactive); in experiment [3], 14.2 µM (inactive); in experiment [4], 23.4 µM (inactive); in experiment [5] it was 20 µM (inactive); in [6], 2.86 µM (inactive). The GI50 was 15.3 µM (inactive) in experiment [7]; 4.39 µM (inactive) in experiment [8]; 6.44 µM (inactive) in [9]; 3.89 µM (inactive) in experiment [10]; 15.6 µM (inactive) in experiment [11]; 17.4 µM (inactive) in experiment [12]. Further, the GI50 is 10.4 µM (inactive) in [13]; 2.25 µM (inactive) in experiment [14]; 16 µM (inactive) in [15]; 5.08 µM (inactive) in experiment [16]; 6.32 µM (inactive) in experiment [17]; 5.45 µM (inactive) in experiment [18]. Besides, the GI50 is > 100 µM (inactive) in experiment [19] and 18.5 µM (inactive) in [20].
Consider `C#C[C@]1(O)[C@@H](CO)O[C@@H](n2ccc(N)nc2=O)[C@@H]1O`, for which the GI50 in experiment [1] was 0.0791 µM (active); in experiment [2] it was 0.0224 µM (active); in experiment [3], 0.111 µM (active); in experiment [4], < 0.0334 µM (active); in [5] it was 0.0902 µM (active); in experiment [6] it was < 0.01 µM (active). Also, the GI50 was 0.0139 µM (active) in experiment [7]; < 0.01 µM (active) in experiment [8]; < 0.0121 µM (active) in experiment [9]; < 0.01 µM (active) in [10]; < 0.01 µM (active) in experiment [11]; < 0.0127 µM (active) in experiment [12]. For the same compound, the GI50 in experiment [13] is < 0.01 µM (active); in experiment [14] it was < 0.0109 µM (active); in experiment [15], 0.173 µM (active); in [16], < 0.0325 µM (active); in experiment [17] it was < 0.01 µM (active); in experiment [18] it was < 0.01 µM (active). Besides, the GI50 in experiment [19] was 0.108 µM (active); in [20], 0.0908 µM (active).
Consider `COC(=O)[C@H]1[C@H](OC(=O)[C@@H](OC)c2ccccc2)ON2CC[C@@H](OC(=O)c3ccccc3)[C@H]12`, for which the GI50 in experiment [1] is > 100 µM (inactive); in experiment [2], > 100 µM (inactive); in experiment [3] it was > 100 µM (inactive); in experiment [4], 39.4 µM (inactive); in experiment [5], > 100 µM (inactive); in [7], > 100 µM (inactive). Further, the GI50 in experiment [8] was 3.83 µM (inactive); in [9], 61.4 µM (inactive); in experiment [10], 45.2 µM (inactive); in experiment [11] it was > 100 µM (inactive); in experiment [12] it was > 100 µM (inactive); in [13], 78 µM (inactive). Also, the GI50 is > 100 µM (inactive) in [14]; > 100 µM (inactive) in experiment [15]; 43 µM (inactive) in experiment [16]; > 100 µM (inactive) in experiment [17]; > 100 µM (inactive) in experiment [18]; 57.9 µM (inactive) in [19]. For the same compound, the GI50 in experiment [20] was 74.3 µM (inactive).
For `COc1ccc(CNc2nc(NCc3ccc(OC)cc3)nc(NC3CCCCC3)n2)cc1`, the GI50 in [1] was 3.87 µM (inactive); in [2], 0.975 µM (active); in experiment [3], 53.8 µM (inactive); in experiment [4] it was 1.34 µM (inactive); in experiment [6], 3.56 µM (inactive); in experiment [7] it was 3.56 µM (inactive). The GI50 in experiment [8] was 0.112 µM (active); in experiment [9], 2.6 µM (inactive); in experiment [10], 1.07 µM (active); in [11] it was 0.472 µM (active); in [12], 1.5 µM (inactive); in experiment [13], 3.07 µM (inactive). Moreover, the GI50 in [14] is 2.21 µM (inactive); in experiment [15], 2.57 µM (inactive); in experiment [16], 2.81 µM (inactive); in experiment [17], 3.21 µM (inactive); in experiment [18] it was 3.13 µM (inactive); in experiment [19], 1.77 µM (inactive). The GI50 in experiment [20] was 2.48 µM (inactive).
On to `OCC1c2ccccc2-n2nc(-c3ccccc3)c(O)c21` (configuration not stated), for which the GI50 in experiment [1] was 39.4 µM (inactive); in [2], 19.9 µM (inactive); in [3], 47 µM (inactive); in [4], 38.5 µM (inactive); in [5], 54.7 µM (inactive); in experiment [6] it was 29.3 µM (inactive). Moreover, the GI50 is 33.3 µM (inactive) in experiment [7]; 14.4 µM (inactive) in experiment [8]; 18.5 µM (inactive) in [9]; 17.8 µM (inactive) in experiment [10]; 26.2 µM (inactive) in [11]; 18.4 µM (inactive) in experiment [12]. The GI50 in experiment [13] was 17.6 µM (inactive); in experiment [14] it was 28.6 µM (inactive); in experiment [15], 29.2 µM (inactive); in experiment [16], 18.2 µM (inactive); in experiment [18], 20.7 µM (inactive); in experiment [19] it was 42.2 µM (inactive). Besides, the GI50 in experiment [20] was 29.2 µM (inactive).
